PMC5863496, “Mesobuthus Venom-Derived Antimicrobial Peptides Possess Intrinsic Multifunctionality and Differential Potential as Drugs” (Frontiers in Microbiology, 2018)
Ends that are not written are not given here.

Key:
[1] = Serum stability; assay type: in vitro ADME; conditions: fresh mouse serum, 37°C, read-out inhibition zone on S. aureus PRSA P1383 plates
Protocol: (§1) To assess serum stability, peptides were dissolved in H2O or fresh mouse serum for the indicated times at 37°C and their residual activity was measured by the inhibition-zone assay (Hultmark, [1998]).

[2] = test system: S. aureus PRSA P1383; experiment: Killing kinetics; assay type: cell-based, Staphylococcus aureus; conditions: 5x CL (20 μg/ml)
Protocol: The in vitro killing curve for MeuTXKβ1 was determined against the bacterium S. aureus PRSA P1383. For the assay, a single fresh colony was inoculated into LB (Luria-Bertani) medium (10 g tryptone, 5 g yeast extract, and 5 g NaCl in 1 l of H2O) and incubated at 37°C until OD600 of 0.2. The initial concentration used was 4 × 10^7 cells/ml. Samples for colony counts were taken at time 0, 5, 10, 15, 20, 30, and 60 min after addition of peptides. Results are given as colony-forming units (CFUs) per milliliter.

[3] = test system: penicillin-resistant Staphylococcus aureus P1383; experiment: Inhibition-zone assay (CL); assay type: cell-based; conditions: concentration used in killing kinetics and membrane permeation
Protocol: (§2) The antimicrobial activity of seven peptides, including MeuFSPL-1, MeuFSPL-2, Marmelittin, Melittin, Meucin-22, Marcin-22, and MeuTXKβ1, was evaluated by the inhibition-zone assay previously described in our studies (Hultmark, [1998]; Zhu et al., [2012a]; Zhu and Gao, [2014]). Temperatures used were 30 or 37°C for bacteria or 28°C for fungi. Media used were Luria-Bertani (LB) Broth (10 g tryptone, 5 g yeast extract, and 5 g NaCl in 1 l of water) or Nutrient Broth (10 g peptone, 5 g beef extract powder, and 5 g NaCl in 1 l of water) or GYM(Isp2) (4 g yeast extract, 10 g malt extract, 4 g glucose, 2 g CaCO3 in 1 l of water) for bacteria or Potato Dextrose Broth (200 g patato and 20 g glucose in 1 l of water) for fungi. To make plates, 10 μl of microbial culture (~2 × 10^6 bacterial cells or fungal spores/ml) were mixed in 6 ml of medium containing 0.8% agar and poured into Peri dishes of 9.0 cm diameter. Wells with a diameter of 2 mm were punched into the medium, filled with 2 μl of sample each well. In this assay, three different doses of peptides were applied to three independent wells in one standard bacterial plate. After incubation overnight, inhibition zones were measured and used to calculate lethal concentrations (CL), a concentration just sufficient to inhibit bacterial growth (Hultmark, [1998]; Gao et al., [2009]). CL values are calculated from a plot of d^2 against log n, where d is the diameter (in cm) and n is the amount of sample applied in the well (in nmol). The plot is linear and thus CL can be calculated from the slope (k) and the intercept (m) of this plot. The formula used here is CL = 2.93/ak10^m/k, where “a” is the thickness of the bacterial plate and “CL” is in μM.

[4] = Stability in H2O; assay type: physicochemical; conditions: 37°C, read-out inhibition zone on S. aureus PRSA P1383 plates
Protocol: as §1

[5] = test system: Staphylococcus warneri ATCC 1.2824; experiment: Inhibition-zone assay (CL); assay type: cell-based; conditions: SW ATCC 1.2824, N.A. = no activity at 0.8 nmol peptide each well
Protocol: as §2

[6] = test system: penicillin-sensitive Staphylococcus epidermidis P1111; experiment: Inhibition-zone assay (CL); assay type: cell-based; conditions: PSSE P1111, N.A. = no activity at 0.8 nmol peptide each well
Protocol: as §2

[7] = test system: Staphylococcus aureus J710; experiment: Inhibition-zone assay (CL); assay type: cell-based; conditions: SA J710, N.A. = no activity at 0.8 nmol peptide each well
Protocol: as §2

[8] = test system: Streptococcus sanguinis ATCC 1.2497; experiment: Inhibition-zone assay (CL); assay type: cell-based; conditions: SSAN ATCC 1.2497, N.A. = no activity at 0.8 nmol peptide each well
Protocol: as §2

[9] = test system: Stenotrophomonas maltophilia CGMCC 1.1788; experiment: Inhibition-zone assay (CL); assay type: cell-based; conditions: SMAL CGMCC 1.1788, N.A. = no activity at 0.8 nmol peptide each well
Protocol: as §2

[10] = test system: Streptomyces griseus NBRC 13350; experiment: Inhibition-zone assay (CL); assay type: cell-based; conditions: SG NBRC 13350, N.A. = no activity at 0.8 nmol peptide each well
Protocol: as §2

[11] = test system: Bacillus subtilis CGMCC 1.2428; experiment: Inhibition-zone assay (CL); assay type: cell-based; conditions: BS CGMCC 1.2428, N.A. = no activity at 0.8 nmol peptide each well
Protocol: as §2

[12] = test system: methicillin-resistant coagulase-negative Staphylococcus P1369; experiment: Inhibition-zone assay (CL); assay type: cell-based; conditions: MRCNS P1369, N.A. = no activity at 0.8 nmol peptide each well
Protocol: as §2

[13] = test system: Staphylococcus aureus J708; experiment: Inhibition-zone assay (CL); assay type: cell-based; conditions: SA J708, N.A. = no activity at 0.8 nmol peptide each well
Protocol: as §2

[14] = test system: Streptococcus mutans ATCC 1.2499; experiment: Inhibition-zone assay (CL); assay type: cell-based; conditions: SM ATCC 1.2499, N.A. = no activity at 0.8 nmol peptide each well
Protocol: as §2

[15] = test system: Staphylococcus aureus J698; experiment: Inhibition-zone assay (CL); assay type: cell-based; conditions: SA J698, N.A. = no activity at 0.8 nmol peptide each well
Protocol: as §2

[16] = test system: Staphylococcus aureus J706; experiment: Inhibition-zone assay (CL); assay type: cell-based; conditions: SA J706, N.A. = no activity at 0.8 nmol peptide each well
Protocol: as §2

[17] = test system: Streptomyces scabiei CGMCC 4.1765; experiment: Inhibition-zone assay (CL); assay type: cell-based; conditions: SSCA CGMCC 4.1765, N.A. = no activity at 0.8 nmol peptide each well
Protocol: as §2

[18] = test system: Staphylococcus aureus J685; experiment: Inhibition-zone assay (CL); assay type: cell-based; conditions: SA J685, N.A. = no activity at 0.8 nmol peptide each well
Protocol: as §2

[19] = test system: Staphylococcus aureus J700; experiment: Inhibition-zone assay (CL); assay type: cell-based; conditions: SA J700, N.A. = no activity at 0.8 nmol peptide each well
Protocol: as §2

[20] = test system: methicillin-sensitive Staphylococcus aureus CGMCC 1.89; experiment: Inhibition-zone assay (CL); assay type: cell-based; conditions: MSSA CGMCC 1.89, N.A. = no activity at 0.8 nmol peptide each well
Protocol: as §2

[21] = test system: Streptococcus salivarius ATCC 1.2498; experiment: Inhibition-zone assay (CL); assay type: cell-based; conditions: SSAL ATCC 1.2498, N.A. = no activity at 0.8 nmol peptide each well
Protocol: as §2

[22] = test system: penicillin-resistant Staphylococcus epidermidis P1389; experiment: Inhibition-zone assay (CL); assay type: cell-based; conditions: PRSE P1389, N.A. = no activity at 0.8 nmol peptide each well
Protocol: as §2

[23] = 24 h, three independent experiments

For `CN[C@H](CC(C)C)C(=O)N[C@H]1C(=O)N[C@@H](CC(N)=O)C(=O)N[C@H]2C(=O)N[C@H]3C(=O)N[C@H](C(=O)N[C@H](C(=O)O)c4cc(O)cc(O)c4-c4cc3ccc4O)[C@H](O)c3ccc(c(Cl)c3)Oc3cc2cc(c3O[C@@H]2O[C@H](CO)[C@@H](O)[C@H](O)[C@H]2O[C@H]2C[C@](C)(N)[C@H](O)[C@H](C)O2)Oc2ccc(cc2Cl)[C@H]1O` [vancomycin], the “residual activity after incubation in mouse serum” value ([1]; 6 h) was “remained its full activity”, the “residual activity after incubation in mouse serum” value [1, 23] was “completely lose” and the “killing rate compared with MeuTXKβ1” value [2] was “slower killing rate”. The “5x CL for P1383” value [3] was 20 µg/mL, the “residual activity after incubation in H2O” value ([4]; 6 h) was “remained its full activity” and the “residual activity after incubation in H2O” value [4, 23] was “completely lose”.
In the case of “IFGAIAGLLKNIF-NH2 [MUC-13, reference compound]”, the “Lethal concentration (CL)” value [5] is reported as 6.24 µM, the “Lethal concentration (CL)” value [6] is reported as 10.24 µM and the “Lethal concentration (CL)” value [7] is reported as 7.10 µM. For the same molecule, the “Lethal concentration (CL)” value [8] was 6.24 µM, the “Lethal concentration (CL)” value [9] was 4.89 µM and the “Lethal concentration (CL)” value [10] was 53.31 µM. For the same molecule, the “Lethal concentration (CL)” value [11] was 6.24 µM, the “Lethal concentration (CL)” value [12] was 33.80 µM and the “Lethal concentration (CL)” value [13] was 7.54 µM. For the same molecule, the “Lethal concentration (CL)” value [14] was 10.24 µM, the “Lethal concentration (CL)” value [15] was 7.54 µM and the “Lethal concentration (CL)” value [16] was 5.67 µM. The “Lethal concentration (CL)” value [17] was 15.07 µM, the “Lethal concentration (CL)” value [18] was 10.16 µM and the “Lethal concentration (CL)” value [19] was 7.54 µM. For the same molecule, the “Lethal concentration (CL)” value [20] was 10.24 µM, the “Lethal concentration (CL)” value [21] was 7.54 µM and the “Lethal concentration (CL)” value [22] was 24.06 µM.
